Laboratory results: PubChem BioAssay AID248 (DTP/NCI, 2004)
Where “and” joins values, the source holds several entries; their conditions need not be identical. Equal values may be shown once. Inconclusive results and toxic doses are left out. Rule as the data show it: active = T/C of 150% or more; inactive = T/C below 125%.

System: L1210 leukemia ip in BDF1 mice, survival T/C
Test: NCI In Vivo Anticancer Drug Screen. Data for tumor model L1210 Leukemia (intraperitoneal) in B6D2F1 (BDF1) mice
Settings: endpoint: mean survival time, higher = longer survival
In short: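 Each compound was tested against a transplantable tumor grown in mice. The endpoint was survival, with treated animals benchmarked against vehicle controls as a simple ratio.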

[1] = dose: 75.0 mg/kg/injection, schedule: Q01DX001 (ip), vehicle: saline
[2] = dose: 150.0 mg/kg/injection, schedule: Q01DX001 (ip), vehicle: saline
[3] = dose: 100.0 mg/kg/injection, schedule: Q04DX003 (ip), vehicle: saline with Tween-80
[4] = dose: 200.0 mg/kg/injection, schedule: Q04DX003 (ip), vehicle: saline with Tween-80
[5] = dose: 400.0 mg/kg/injection, schedule: Q04DX003 (ip), vehicle: saline with Tween-80
[6] = dose: 25.0 mg/kg/injection, schedule: Q01DX009 (ip), vehicle: saline
[7] = dose: 50.0 mg/kg/injection, schedule: Q01DX009 (ip), vehicle: saline with Tween-80
[8] = dose: 100.0 mg/kg/injection, schedule: Q01DX009 (ip), vehicle: saline with Tween-80
[9] = dose: 200.0 mg/kg/injection, schedule: Q01DX009 (ip), vehicle: saline with Tween-80
[10] = dose: 50.0 mg/kg/injection, schedule: Q01DX009 (ip), vehicle: saline
[11] = dose: 100.0 mg/kg/injection, schedule: Q01DX001 (ip), vehicle: carboxymethylcellulose (CMC)
[12] = dose: 200.0 mg/kg/injection, schedule: Q01DX001 (ip), vehicle: carboxymethylcellulose (CMC)
[13] = dose: 400.0 mg/kg/injection, schedule: Q01DX001 (ip), vehicle: carboxymethylcellulose (CMC)
[14] = dose: 400.0 mg/kg/injection, schedule: Q01DX009 (ip), vehicle: saline with Tween-80
[15] = dose: 100.0 mg/kg/injection, schedule: Q04DX002 (ip), vehicle: saline with Tween-80
[16] = dose: 200.0 mg/kg/injection, schedule: Q04DX002 (ip), vehicle: saline with Tween-80
[17] = dose: 400.0 mg/kg/injection, schedule: Q04DX002 (ip), vehicle: saline with Tween-80
[18] = dose: 100.0 mg/kg/injection, schedule: Q01DX001 (ip), vehicle: Klucel (hydroxypropylcellulose) (HPC)
[19] = dose: 200.0 mg/kg/injection, schedule: Q01DX001 (ip), vehicle: Klucel (hydroxypropylcellulose) (HPC)

Measured: T/C

COc1ccc2c(c1)C1(C(=O)O)CC=CCC1(C(=O)O)C2 (configuration not stated)
inactive: [1] 98 % of control | [2] 98 % of control | dose: 300.0 mg/kg/injection, schedule: Q01DX001 (ip), vehicle: saline 96 % of control

CCC1(C)CC1(Cl)Cl (configuration not stated)
inactive: dose: 100.0 mg/kg/injection, schedule: Q04DX003 (ip), vehicle: other 105 % of control | dose: 200.0 mg/kg/injection, schedule: Q04DX003 (ip), vehicle: other 102 % of control | dose: 400.0 mg/kg/injection, schedule: Q04DX003 (ip), vehicle: other 100 % of control

O=S(=O)(CC1CC2C=CC1C2)c1ccc(Br)cc1 (configuration not stated)
inactive: [3] 108 % of control | [4] 101 % of control | [5] 101 % of control

C=CCNC(=O)C1C2C=CC(C2)C1C(=O)NCC=C (configuration not stated)
inactive: [3] 103 % of control | [4] 103 % of control

O=S(=O)([O-])Sn1c(-c2ccccc2)c[n+]2ccccc12
inactive: dose: 5.0 mg/kg/injection, schedule: Q01DX009 (ip), vehicle: saline 96 % of control | dose: 10.0 mg/kg/injection, schedule: Q01DX001 (ip), vehicle: saline 102 % of control | dose: 10.0 mg/kg/injection, schedule: Q01DX009 (ip), vehicle: saline 101 % of control | dose: 10.0 mg/kg/injection, schedule: Q04DX003 (ip), vehicle: saline 100 % of control | dose: 20.0 mg/kg/injection, schedule: Q01DX001 (ip), vehicle: saline 100 % of control | dose: 20.0 mg/kg/injection, schedule: Q01DX009 (ip), vehicle: saline 120 % of control | dose: 20.0 mg/kg/injection, schedule: Q04DX003 (ip), vehicle: saline 97 % of control | dose: 40.0 mg/kg/injection, schedule: Q01DX001 (ip), vehicle: saline 96 % of control | dose: 40.0 mg/kg/injection, schedule: Q04DX003 (ip), vehicle: saline 106 % of control

CN1CC(=O)NC1=O
inactive: dose: 250.0 mg/kg/injection, schedule: Q01DX Z (ip), vehicle: saline 94 % of control | dose: 500.0 mg/kg/injection, schedule: Q01DX Z (ip), vehicle: saline 97 % of control | dose: 1000.0 mg/kg/injection, schedule: Q01DX Z (ip), vehicle: saline 96 % of control

O=C1NC2(CCCCC2)C(=O)N1CCN(CCCl)CCCl
inactive: dose: 1.3 mg/kg/injection, schedule: Q01DX009 (ip), vehicle: saline 96 % of control | dose: 2.0 mg/kg/injection, schedule: Q01DX009 (ip), vehicle: saline 107 % of control | dose: 4.1 mg/kg/injection, schedule: Q01DX009 (ip), vehicle: saline 117 % of control | dose: 6.25 mg/kg/injection, schedule: Q01DX009 (ip), vehicle: saline 119 % of control | dose: 9.3 mg/kg/injection, schedule: Q01DX009 (ip), vehicle: saline 124 % of control | dose: 16.0 mg/kg/injection, schedule: Q04DX003 (ip), vehicle: saline 122 % of control | [6] 106 % of control

CCCCCCCCCCCCCCSCCO
inactive: dose: 100.0 mg/kg/injection, schedule: Q01DX009 (ip), vehicle: carboxymethylcellulose (CMC) 103 % of control | dose: 200.0 mg/kg/injection, schedule: Q01DX009 (ip), vehicle: carboxymethylcellulose (CMC) 102 % of control

COC1CC2C=CC1C2 (configuration not stated)
inactive: [7] 92 % of control | [8] 89 % of control | [9] 92 % of control

C=CC(=O)Oc1ccc([N+](=O)[O-])cc1
inactive: dose: 12.0 mg/kg/injection, schedule: Q01DX009 (ip), vehicle: saline 100 % of control | [6] 117 % of control | [10] 114 % of control | dose: 200.0 mg/kg/injection, schedule: Q04DX003 (ip), vehicle: saline 100 % of control | dose: 400.0 mg/kg/injection, schedule: Q04DX003 (ip), vehicle: saline 108 % of control

CN1CCC2CCC(C1)N2C (configuration not stated)
inactive: [1] 93 % of control | [2] 100 % of control

Nc1ccc(C(=O)O)c(C(=O)O)c1
inactive: [8] 101 % of control | dose: 100.0 mg/kg/injection, schedule: Q04DX003 (ip), vehicle: Klucel (hydroxypropylcellulose) (HPC) 100 % of control | [9] 91 % of control | dose: 200.0 mg/kg/injection, schedule: Q04DX003 (ip), vehicle: Klucel (hydroxypropylcellulose) (HPC) 98 % of control | dose: 400.0 mg/kg/injection, schedule: Q04DX003 (ip), vehicle: Klucel (hydroxypropylcellulose) (HPC) 102 % of control

CCOC(=O)CCSC(C)(C)C(=O)OCC
inactive: dose: 100.0 mg/kg/injection, schedule: Q01DX009 (ip), vehicle: Klucel (hydroxypropylcellulose) (HPC) 97 % of control | dose: 200.0 mg/kg/injection, schedule: Q01DX009 (ip), vehicle: Klucel (hydroxypropylcellulose) (HPC) 101 % of control | dose: 400.0 mg/kg/injection, schedule: Q01DX009 (ip), vehicle: Klucel (hydroxypropylcellulose) (HPC) 100 % of control

COC(=O)c1cc(/C=C/c2ccccc2)ccc1[N+](=O)[O-]
inactive: dose: 50.0 mg/kg/injection, schedule: Q04DX003 (ip), vehicle: alcohol 90 % of control | dose: 100.0 mg/kg/injection, schedule: Q04DX003 (ip), vehicle: alcohol 101 % of control | dose: 200.0 mg/kg/injection, schedule: Q04DX003 (ip), vehicle: alcohol 104 % of control

CCCCCC(O)(CCCC)CCCC
inactive: [11] 104 % of control | [12] 107 % of control | [13] 102 % of control

CCOP(=S)(NCCOC)OCC
inactive: [8] 97 % of control | [9] 94 % of control | [14] 95 % of control

Cc1cc(=O)[nH]c(NCCCC(N)C(=O)O)n1 (configuration not stated)
inactive: dose: 100.0 mg/kg/injection, schedule: Q04DX002 (ip), vehicle: saline 104 % of control | dose: 200.0 mg/kg/injection, schedule: Q04DX002 (ip), vehicle: saline 101 % of control | dose: 400.0 mg/kg/injection, schedule: Q04DX002 (ip), vehicle: saline 96 % of control

CC(C)CC(=O)N(C)c1ccccc1
inactive: dose: 50.0 mg/kg/injection, schedule: Q01DX001 (ip), vehicle: carboxymethylcellulose (CMC) 111 % of control | [11] 108 % of control | [12] 100 % of control | [13] 97 % of control

CCOC(=O)C(=CN(C(C)C)C(C)C)C(=O)OCC
inactive: [10] 100 % of control | dose: 100.0 mg/kg/injection, schedule: Q01DX009 (ip), vehicle: saline 98 % of control | [3] 94 % of control | dose: 200.0 mg/kg/injection, schedule: Q01DX009 (ip), vehicle: saline 101 % of control | [4] 100 % of control

CCCCSC(C)(SCCCC)SCCCC
inactive: [15] 97 % of control | [16] 101 % of control | [17] 116 % of control

NCCNC(=S)S
inactive: [18] 103 % of control | [8] 93 % of control | [3] 93 % of control | [19] 95 % of control | [9] 87 % of control | [4] 95 % of control | dose: 400.0 mg/kg/injection, schedule: Q01DX001 (ip), vehicle: Klucel (hydroxypropylcellulose) (HPC) 103 % of control | [14] 86 % of control | [5] 91 % of control

CCCCCCCCCCOS(C)=O (configuration not stated)
inactive: [7] 100 % of control | [8] 92 % of control | [9] 88 % of control

CC(C)(C)c1cc(C(C)(C)C)nc(C(C)(C)C)c1
inactive: [18] 98 % of control | [19] 98 % of control

CCCCCCCCCCSS(=O)(=O)O
inactive: dose: 100.0 mg/kg/injection, schedule: Q01DX001 (ip), vehicle: other 98 % of control | dose: 400.0 mg/kg/injection, schedule: Q01DX001 (ip), vehicle: other 86 % of control

O=C(NC(=S)Nc1ccc2ccccc2c1)c1ccc(Cl)cc1Cl
inactive: dose: 100.0 mg/kg/injection, schedule: Q01DX001 (ip), vehicle: saline with Tween-80 100 % of control | [15] 93 % of control and 90 % of control | dose: 200.0 mg/kg/injection, schedule: Q01DX001 (ip), vehicle: saline with Tween-80 101 % of control | [16] 93 % of control and 96 % of control | dose: 400.0 mg/kg/injection, schedule: Q01DX001 (ip), vehicle: saline with Tween-80 96 % of control | [17] 104 % of control and 86 % of control

O=C1OCc2cc3ccccc3nc21
inactive: [8] 94 % of control | [3] 105 % of control | [9] 97 % of control | [4] 105 % of control | [14] 92 % of control | [5] 96 % of control
